How the values were obtained:
[1] = test system: hippocampal LTP in healthy rats; assay: Hippocampal LTP in slices from healthy rats treated in vivo; set-up: species or system rat; settings: 2 mg/kg i.p. each day during 7 days (P21-P27)
Experimental: At P28-38, Sprague-Dawley rats were anesthetized with isoflurane, the forebrain was removed and placed in ice cold standard artificial cerebrospinal fluid (ACSF), consisting of (in mM): 124 NaCl, 5 KCl, 1.25 Na2HPO4, 2 MgSO4, 2 CaCl2), 26 NaHCO3, supplemented with 10 D-glucose, and bubbled with 95% O2 and 5% CO2. Hippocampal transverse slices were cut into 350 μm thick sections, using a vibratome (Leica VT1000S), and incubated in ACSF at room temperature for at least 1 h, before the transfer to the recording chamber. The ACSF used for perfusion was supplemented with picrotoxin (100 μM; Sigma-Aldrich), to block GABA-A receptors and therefore to facilitate the induction of NMDA receptors-dependent Long-Term Potentiation (LTP). […] Series resistance was continually monitored, and experiments were discarded if it changed by >20%.
Capillary glass pipettes filled with ACSF and connected to an Iso-Flex stimulus isolation unit (A.M.P.I.) were placed in stratum radiatum, to evoke excitatory postsynaptic potentials (EPSPs) in CA1 pyramidal neurons. […] LTP was induced by the theta burst pairing (TBP) protocol, which consisted of EPSPs paired with single back-propagating action potentials (b-APs), timed so that the b-AP (~15 ms delay) occurred at the peak of the EPSPs, as measured in the soma. […]

[2] = test system: CA1 pyramidal neurons in hippocampal slices from rats subjected to Pilo-SE; assay: Hippocampal LTP in slices from Pilo-SE rats, compound perfused in the bath (ex vivo); assay type: cell-based, rat; settings: slices 1-2 weeks post Pilo-SE
Experimental: (§1) In this experiment we used male Sprague-Dawley rats (ENVIGO, Netherlands). Pups were received at 14 day-old (postnatal day 14 (P14)) with their foster mother, and were maintained in groups of 10 in plastic cages (405 mm×255 mm×197 mm) with free access to food and water. All animal procedures are in accordance with the guidelines of the Animal Care and Use Committee of the University Claude Bernard Lyon 1.
(§2) All injected solutions were prepared in sterile saline (0.9% w/v). At weaning (postnatal day 20 (P20)), Sprague-Dawley male rat pups were first injected i.p. with lithium chloride (127 mg/Kg; Sigma-Aldrich), to decrease the dose of pilocarpine needed to trigger Status Epilepticus (SE). Scopolamine methylnitrate (1 mg/Kg; Sigma-Aldrich) was injected s.c. 18 h later, to alleviate peripheral cholinergic adverse side effects. Pilocarpine hydrochloride (25 mg/Kg; Sigma-Aldrich) was injected i.p. 30 min later, to induce SE. […] The rats were placed on a heated pad, under continuous observation, until they recovered from sedation. Following recovery, the rats were returned to the nursing mother until P23. Control rats only received saline injections. All rats were then housed in groups of 10 and weighed daily, during the 5 following days, to control for food intake, and then twice weekly until the end of experiment (three weeks post SE).
(§3) At P28-38, Sprague-Dawley rats were anesthetized with isoflurane, the forebrain was removed and placed in ice cold standard artificial cerebrospinal fluid (ACSF), consisting of (in mM): 124 NaCl, 5 KCl, 1.25 Na2HPO4, 2 MgSO4, 2 CaCl2), 26 NaHCO3, supplemented with 10 D-glucose, and bubbled with 95% O2 and 5% CO2. Hippocampal transverse slices were cut into 350 μm thick sections, using a vibratome (Leica VT1000S), and incubated in ACSF at room temperature for at least 1 h, before the transfer to the recording chamber. The ACSF used for perfusion was supplemented with picrotoxin (100 μM; Sigma-Aldrich), to block GABA-A receptors and therefore to facilitate the induction of NMDA receptors-dependent Long-Term Potentiation (LTP). CA1 pyramidal cells were visualized with a Zeiss Axioskop 2, equipped with a X40 objective, using infrared video microscopy and differential interference contrast optics. Whole-cell recordings from pyramidal neurons in the CA1 layer were obtained with patch electrodes, which were filled with a solution containing (in mM): 120 potassium gluconate, 20 KCl, 0.2 EGTA, 2 MgCl2, 10 HEPES, 4 Na2ATP, 0.3 Tris-GTP and 14 mM phosphocreatine (pH 7.3, adjusted with KOH). Drugs were applied in the bath of the hippocampal slices. Electrode resistances ranged from 3-5 MΩ. Series resistance was continually monitored, and experiments were discarded if it changed by >20%.
Capillary glass pipettes filled with ACSF and connected to an Iso-Flex stimulus isolation unit (A.M.P.I.) were placed in stratum radiatum, to evoke excitatory postsynaptic potentials (EPSPs) in CA1 pyramidal neurons. Cells were held at −70 mV to record EPSPs, and the stimulation strength was set to evoke EPSPs between 5-8 mV. LTP was induced by the theta burst pairing (TBP) protocol, which consisted of EPSPs paired with single back-propagating action potentials (b-APs), timed so that the b-AP (~15 ms delay) occurred at the peak of the EPSPs, as measured in the soma. A single burst contained five pairs delivered at 100 Hz and ten bursts were delivered at 5 Hz per sweep. Three sweeps were delivered at 10 s intervals for a total of 30 bursts (150 b-AP-EPSP pairs). […]

[3] = test system: LPS-induced neuroinflammation (hippocampus and neocortex); assay: LPS-induced neuroinflammation in vivo in rats (RT-qPCR, Neuroinflammation Index); set-up: species or system rat; settings: 6 h post-LPS
[4] = test system: hippocampal LTP in rats subjected to Pilo-SE; assay: Hippocampal LTP in slices from Pilo-SE rats treated in vivo (i.p. or per os); set-up: species or system rat; settings: 1 h after cessation of SE then daily
Experimental: as §1, §2, §3
Capillary glass pipettes filled with ACSF and connected to an Iso-Flex stimulus isolation unit (A.M.P.I.) were placed in stratum radiatum, to evoke excitatory postsynaptic potentials (EPSPs) in CA1 pyramidal neurons. Cells were held at −70 mV to record EPSPs, and the stimulation strength was set to evoke EPSPs between 5-8 mV. LTP was induced by the theta burst pairing (TBP) protocol, which consisted of EPSPs paired with single back-propagating action potentials (b-APs), timed so that the b-AP (~15 ms delay) occurred at the peak of the EPSPs, as measured in the soma. A single burst contained five pairs delivered at 100 Hz and ten bursts were delivered at 5 Hz per sweep. Three sweeps were delivered at 10 s intervals for a total of 30 bursts (150 b-AP-EPSP pairs). The b-APs were elicited by direct somatic current injection (1 ms, 1-2 nA). This induction protocol was always applied within 20 min of achieving whole-cell configuration, to avoid “wash-out” of LTP.

CCC=CCC=CCC=CCC=CCC=CCC=CCCC(=O)NCCP(=O)(O)O [synaptamide phosphonate]
LTP magnitude (EPSP amplitude, % of baseline) [1]: 212.11±12.9%
LTP magnitude (EPSP amplitude, % of baseline) ([2]; bath application 100 nM): 132.2±5.01%
LTP magnitude (EPSP amplitude, % of baseline) ([2]; bath application 400 nM): 159.9±10.7%
LPS-mediated induction of transcripts encoding neuroinflammatory markers ([3]; 2 mg/Kg synaptamide equivalent i.p. one minute after LPS 1 mg/Kg, 21-day-old rats): partially prevent
reduction of the Neuroinflammatory Index measured both in the hippocampus and the neocortex ([3]; 2 mg/Kg synaptamide equivalent i.p. one minute after LPS): ~ 70%
LTP magnitude (EPSP amplitude, % of baseline) ([4]; 2 mg/kg i.p.): 183.07±9.02%
LTP magnitude (EPSP amplitude, % of baseline) ([4]; 5 mg/kg i.p.): 162.4±11.9%
LTP magnitude (EPSP amplitude, % of baseline) ([4]; 10 mg/kg i.p.): 162.78±12.23%
LTP magnitude (EPSP amplitude, % of baseline) ([4]; 10 mg/kg per os): 110.7±4.7%
LTP magnitude (EPSP amplitude, % of baseline) ([4]; 30 mg/kg per os): 146.16±10%
LTP magnitude (EPSP amplitude, % of baseline) ([4]; 100 mg/kg per os): 162.6±9.2%

Reference: US20260234173A1, “STRUCTURED MOLECULAR VECTORS FOR ANTI-INFLAMMATORY COMPOUNDS AND USES THEREOF” (Universite Claude Bernard Lyon 1, priority 2019, published 2026)
